Read-outs that look alike come from different tables or passages of the source. Marks after values point to notes of the source that are not given here.
Key:
[1] = Solubilization of griseofulvin by surfactants (UV absorption spectrometry); assay type: physicochemical
Experimental: For each of the surfactants, four samples with different surfactant concentrations were prepared. The surfactants were dissolved and diluted in pure and filtered water. Griseofulvin was added in excess and the samples were allowed to equilibrate for 4 hours at 45° C. followed by 20 hours at room temperature. The samples were thoroughly shaken during the whole equilibration time. The samples were subsequently centrifuged to remove undissolved griseofulvin. The concentration of dissolved griseofulvin was determined by UV absorption spectrometry. The absorbance was recorded at the wavelength for maximum absorption, λmax=295 nm.
In line with the definition in Example 8, the solubilization capacity becomes [formula]

[2] = test system: erythrocytes extracted from dog blood; test: Determination of the lysis of erythrocytes
Experimental: (§1) Erythrocytes were extracted from dog blood by a centrifugation—resuspension procedure. The fresh blood was subjected to mild centrifugation at 2000×g for 10 mins. The excessive blood plasma was removed and the so-obtained sediment of erythrocytes was resuspended in normal saline (0.9% NaCl in water). This procedure was repeated twice. The final volume of the erythrocyte suspension was equal to the initial volume of the fresh blood. Surfactant solutions with varying concentration of the surfactant were prepared by dissolving and diluting appropriate amounts of surfactants in 0.9% (w/w) NaCl in water. 100 μl surfactant solution was added to 400 μl erythrocyte suspension. The samples were vigorously agitated for 5 seconds immediately after addition, followed by 20 mins incubation at 37° C. under gentle shaking. The samples were centrifuged for 6 mins at 3000 g and 5° C. The centrifugation separated the samples into sediments of intact erythrocytes and a supernatant. A small fraction of the supernatant was removed and analysed with respect to hemoglobin content. The hemoglobin was allowed to undergo a chemical reaction with H2O2, aminophenazon, and phenol. […] From this concentration, the initial concentration of hemoglobin was calculated. Each determination was carried out for triplicate samples.
(§2) Negative control samples, i.e. samples for the determination of background lysis, were prepared by adding 100 μl normal saline to 400 μl erythrocyte suspension. These samples were treated and analysed in the same way as described above.
(§3) Positive control samples, i.e. samples for the determination of total hemoglobin content, were prepared by diluting the erythrocyte suspension 500 times with distilled water. The dilution caused complete lysis of all erythrocytes, and the concentration of released hemoglobin could be determined as described above.
(§4) The degree of lysis was calculated according to the following expression [formula]
(§5) where % L is the degree of lysis in %, [Hb] the concentration of released hemoglobin in the mixture of erythrocytes and surfactant, [Hb]0 the concentration of released hemoglobin in the negative control (basal hemolysis), and [Hb]tot the total concentration of hemoglobin in the mixtures of erythrocytes and surfactant.
(§6) The degree of lysis was determined as a function of the surfactant concentration in the mixture of erythrocytes and surfactant.
(§7) The activity of each surfactant to cause lysis of erythrocytes is indicated by the position of the lysis curve in the diagram. For a surfactant with low activity, a high concentration is required to obtain a certain degree of lysis. Here, the activity is quantified by considering the concentration at which 10% lysis is obtained. The higher the concentration, the lower the activity.

[3] = test system: fresh blood taken from beagle dog (red blood cells); test: Determination of hemolysis in fresh blood; assay type: cell-based; conditions: for Hemolytic activity (concentration range at which 5% hemolysis is obtained): surfactant concentration in blood/surfactant mixture, read from hemolysis curves
Experimental: 100 μl surfactant solution was added to 400 μl fresh blood taken from beagle dog. The blood and surfactant mixture was gently agitated for 2-3 seconds immediately after addition, followed by 10 mins incubation at 37° C. under gentle shaking. […] During centrifugation the sample separated into a sediment of red blood cells and a supernatant. […] Each determination was carried out for triplicate samples.
After 30 minutes 400 μl of the so-obtained solution was mixed with 100 μl normal saline. From the resulting solution, a small fraction was removed and analysed with respect to hemoglobin content with a Cobas Bio spectrophotometer.
The degree of hemolysis was calculated according to the following expression [formula]
The position of the hemolysis curve along the concentration axis in such a diagram determines the hemolytic activity. The more hemolytic a surfactant is, the lower concentration is required to obtain a certain degree of hemolysis. In order to quantify the hemolytic activity, the concentration was considered at which 5% hemolysis was obtained. The higher the concentration, the lower the activity. The procedure was repeated at least once for all surfactants.

[4] = test system: erythrocytes extracted from dog blood
Experimental: as §1, §2, §3, §4, §5, §6, §7

[5] = no surfactant; cited from earlier work
[6] = Solubilization of felodipine by surfactants (14C scintillation detection); assay type: physicochemical; conditions: for solubility of felodipine on addition of the surfactant (in words): 0.9% (w/w) NaCl in water
Experimental: Both ^14C-labelled and non-labelled felodipine were provided by AstraZeneca AB. In order to obtain a molecularly homogeneous mixture of labelled and non-labelled felodipine, both components were dissolved in chloroform. After a clear solution was obtained, the solvent was evaporated. […] The surfactants were dissolved and diluted in 0.9% (w/w) NaCl in water. The felodipine was added in excess and the samples were allowed to equilibrate for over 48 hours in room temperature under thorough shaking. The samples were filtered using 4 mm Durapore filters (0.45 μm, Millipore) to remove undissolved felodipine. […] From each sample 0.5 ml solution was withdrawn and mixed with 3.5 ml scintillation liquid. The concentration of dissolved felodipine was determined by means of scintillation detection using a Beckman LS6500 scintillation counter.
The solubilization capacity of each surfactant with respect to felodipine was determined by considering the slope of the solubilization curves, α. The slope of each curve, α, describes the additional amount of felodipine that can be dissolved in a solution when a small amount of surfactant is added, which is also the definition of the solubilization capacity. [formula]
The solubilization capacity was calculated by fitting a linear expression to the experimental data and extracting the slope, α.

[7] = surfactant 0.00 mM (no surfactant) in 0.9% (w/w) NaCl

In the case of `OC[C@H]1O[C@H](O[C@H]2[C@H](O)[C@@H](O)[C@H](OCCCCCCC3CCCCC3)O[C@@H]2CO)[C@H](O)[C@@H](O)[C@@H]1O` [Cyclohexyl-hexyl maltoside, cyclohexyl-n-hexyl-β-D-maltopyranoside], the “Griseofulvin concentration (solubility of griseofulvin)” value (shortened to “Griseofulvin concentration”) ([1]; surfactant 2.804 mM in water) was 23.4 µM, the “Griseofulvin concentration” value ([1]; surfactant 5.608 mM in water) was 51 µM and the “Griseofulvin concentration” value ([1]; surfactant 14.019 mM in water) was 132.9 µM. For the same compound, the “Griseofulvin concentration” value ([1]; surfactant 28.038 mM in water) was 272 µM, the “degree of lysis of erythrocytes, % L” value ([2]; surfactant 0.20 mM in mixture of erythrocytes and surfactant) was 0.31% and the “degree of lysis of erythrocytes, % L” value ([2]; surfactant 0.40 mM in mixture of erythrocytes and surfactant) was 1.96%. For the same compound, the “degree of lysis of erythrocytes, % L” value ([2]; surfactant 0.80 mM in mixture of erythrocytes and surfactant) was 7.60%, the “degree of lysis of erythrocytes, % L” value ([2]; surfactant 1.00 mM in mixture of erythrocytes and surfactant) was 9.67% and the “degree of lysis of erythrocytes, % L” value ([2]; surfactant 2.01 mM in mixture of erythrocytes and surfactant) was 15.11%. The “degree of lysis of erythrocytes, % L” value ([2]; surfactant 2.50 mM in mixture of erythrocytes and surfactant) was 20.28% and the “Activity of lysis (concentration at which 10% lysis is obtained)” value ([2]; surfactant concentration in mixture of erythrocytes and surfactant, read from lysis curves) was 1.1 mM.
For `CCCCCCCCCCCCO[C@@H]1O[C@H](CO)[C@@H](O[C@H]2O[C@H](CO)[C@@H](O)[C@H](O)[C@H]2O)[C@H](O)[C@H]1O` [Dodecyl maltoside, n-dodecyl-β-D-maltopyranoside], the “Griseofulvin concentration” value ([1]; surfactant 0.811 mM in water) was 10.1 µM, the “Griseofulvin concentration” value ([1]; surfactant 1.622 mM in water) was 22.1 µM and the “Griseofulvin concentration” value ([1]; surfactant 4.054 mM in water) was 58.2 µM. For the same compound, the “Griseofulvin concentration” value ([1]; surfactant 8.108 mM in water) was 115.7 µM, the “degree of hemolysis, % H” value ([3]; surfactant 0.098 mM in blood/surfactant mixture) was 0.456% and the “degree of hemolysis, % H” value ([3]; surfactant 0.196 mM in blood/surfactant mixture) was 1.047%. The “degree of hemolysis, % H” value ([3]; surfactant 0.392 mM in blood/surfactant mixture) was 2.987%, the “degree of hemolysis, % H” value ([3]; surfactant 0.588 mM in blood/surfactant mixture) was 4.772% and the “degree of hemolysis, % H” value ([3]; surfactant 0.784 mM in blood/surfactant mixture) was 7.157%. The “degree of hemolysis, % H” value ([3]; surfactant 0.980 mM in blood/surfactant mixture) was 7.563%, the “degree of hemolysis, % H” value ([3]; surfactant 1.177 mM in blood/surfactant mixture) was 11.208% and the “Hemolytic activity (concentration range at which 5% hemolysis is obtained)” value [3] was 0.6 mM. For the same compound, the “Activity of lysis (concentration at which 10% lysis is obtained)” value [4] was 0.8 mM.
For `CCCCCCCCO[C@@H]1O[C@H](CO)[C@@H](O[C@H]2O[C@H](CO)[C@@H](O)[C@H](O)[C@H]2O)[C@H](O)[C@H]1O` [Octyl maltoside, n-octyl-β-D-maltopyranoside], the “Griseofulvin concentration” value ([1]; surfactant 117.6 mM in water) was 323.2 µM, the “Griseofulvin concentration” value ([1]; surfactant 235.1 mM in water) was 442.5 µM and the “Griseofulvin concentration” value ([1]; surfactant 587.8 mM in water) was 445.1 µM. For the same compound, the “Griseofulvin concentration” value ([1]; surfactant 1175.7 mM in water) was 432 µM.
In the case of `COC1=CC(=O)C[C@@H](C)[C@]12Oc1c(Cl)c(OC)cc(OC)c1C2=O` [griseofulvin, Griseofulvin], the “solubility of griseofulvin in pure water” value [5] is listed as 23 µM.
In the case of “polyoxyethylene(20) stearyl ether [Brij ® 78]”, the “solubility of felodipine on addition of the surfactant (in words)” value [6] was “increased”, the “Felodipine concentration (solubility of felodipine)” value (“Felodipine concentration” below) [6, 7] was <0.07 ^† mM and the “Felodipine concentration” value ([6]; surfactant 10.89 mM in 0.9% (w/w) NaCl) was 2.64 mM. For the same compound, the “Felodipine concentration” value ([6]; surfactant 21.79 mM in 0.9% (w/w) NaCl) was 5.22 mM, the “Felodipine concentration” value ([6]; surfactant 32.68 mM in 0.9% (w/w) NaCl) was 7.76 mM and the “Felodipine concentration” value ([6]; surfactant 43.57 mM in 0.9% (w/w) NaCl) was 10.25 mM. The “degree of hemolysis, % H” value ([3]; surfactant 3.48 mM in blood/surfactant mixture) was 1.09%, the “degree of hemolysis, % H” value ([3]; surfactant 3.65 mM in blood/surfactant mixture) was 1.97% and the “degree of hemolysis, % H” value ([3]; surfactant 3.83 mM in blood/surfactant mixture) was 2.47%. The “degree of hemolysis, % H” value ([3]; surfactant 4.00 mM in blood/surfactant mixture) was 3.72%, the “degree of hemolysis, % H” value ([3]; surfactant 4.17 mM in blood/surfactant mixture) was 6.14% and the “degree of hemolysis, % H” value ([3]; surfactant 4.35 mM in blood/surfactant mixture) was 9.21%. For the same compound, the “Hemolytic activity (concentration range at which 5% hemolysis is obtained)” value [3] was 4 mM.
For “polyoxyethylene(23) lauryl ether [Brij ® 35]”, the “solubility of felodipine on addition of the surfactant (in words)” value [6] was “increased”, the “Felodipine concentration” value [6, 7] was <0.07 ^† mM and the “Felodipine concentration” value ([6]; surfactant 10.42 mM in 0.9% (w/w) NaCl) was 1.7070 mM. The “Felodipine concentration” value ([6]; surfactant 20.84 mM in 0.9% (w/w) NaCl) was 3.4064 mM, the “Felodipine concentration” value ([6]; surfactant 31.26 mM in 0.9% (w/w) NaCl) was 5.1085 mM and the “Felodipine concentration” value ([6]; surfactant 41.680 mM in 0.9% (w/w) NaCl) was 6.8927 mM. For the same compound, the “degree of hemolysis, % H” value ([3]; surfactant 8.40 mM in blood/surfactant mixture) was 0.87%, the “degree of hemolysis, % H” value ([3]; surfactant 16.80 mM in blood/surfactant mixture) was 2.37% and the “degree of hemolysis, % H” value ([3]; surfactant 25.20 mM in blood/surfactant mixture) was 5.04%. For the same compound, the “degree of hemolysis, % H” value ([3]; surfactant 33.60 mM in blood/surfactant mixture) was 7.44%, the “degree of hemolysis, % H” value ([3]; surfactant 42.00 mM in blood/surfactant mixture) was 10.85% and the “Hemolytic activity (concentration range at which 5% hemolysis is obtained)” value [3] was 25 mM.

From patent US20040254129A1, “Use of ethoxylated phytosterols and phytostanols” (priority 2001, published 2004)
